Bounds are passed on as bounds.

Regarding `CCCN(CCCc1c[nH]c2ccc(F)cc12)C1COc2c(F)ccc(C(=O)NC)c2C1` (stereo unspecified), the melting point stood at 123 °C.

`FC(F)(F)c1cc(Cl)c(-n2cnc(C(F)(F)C(F)(F)Cl)c2)c(Cl)c1`: the melting point came to 101 °C. The figure for `OC(Cc1ncc[nH]1)(Cn1cncn1)c1ccc(Cl)cc1Cl` (stereo unspecified) is 168 to 170 °C; for `CC(C)(C)OC(=O)N1CCC=C(Cc2cn(S(=O)(=O)c3ccccc3)c3ccc(F)cc23)C1` it is 63 to 65 °C. The figure for `COc1c(F)cccc1OCCN1C(=O)c2ccccc2C1=O` is 112 to 113 °C; for `c1ccc(CSc2nc3ncccn3n2)cc1` it is 104 to 106 °C. Next, `Nc1nnc(-c2cccc(OC(F)(F)C(F)F)c2)c(N)n1`: 199 to 200 °C; `COC(=O)N1CCC(=O)C(C2(NO)OCCO2)CC1` (stereo unspecified): 152 to 154 °C; `CCOC(=O)c1cn(-c2ccc(F)c(NC(C)(C)C)n2)c2c(Br)c(F)c(F)cc2c1=O`: 192 to 195 °C.

Regarding `O=C(Cc1ccccc1)c1ccc(OCC(F)(F)F)cc1`, the melting point is 108 °C.

`CCCCCCCCCCCCCCN(O)C(=O)N(C)C` gave a melting point of 64 to 66 °C. The figure for `CNC(=O)N(O)C(C)C#Cc1ccccc1` (stereo unspecified) is 136 to 137 °C; for `CN(C)C(=O)COc1ccc2c(c1)C[C@@H](NC(=O)OCc1ccccc1)CC2` it is 117 to 118 °C. The figure for `CC(=O)Oc1ccc(CC2SC(=O)NC2=O)cc1` (stereo unspecified) is 115 to 117 °C; for `Cn1ccc2ccc(-c3ccc(C(C)(C)C)cc3)cc21` it is 92 to 94 °C. Next, `Cc1cc(-c2n[nH]c(-c3ccncc3)n2)ccn1`: 245 to 248 °C; `O=C(NC1CCSC2COCC(C(=O)O)N2C1=O)C(S)Cc1ccccc1` (stereo unspecified): 224 to 226 °C; `Cc1cc2c(c(C)c1NC(=O)OC(C)(C)C)C(=O)C(C)(C)O2`: 156 to 157 °C. `CS(=O)(=O)c1ccc(-n2nc(CCCN3C(=O)c4ccccc4C3=O)cc2-c2ccccc2)cc1` yielded a melting point of 62.4 to 72.2 °C.

Compound `N#Cc1cccnc1N1CCN(CC(=O)Nc2cccc(Cl)c2)CC1` came in with a melting point of 108 to 109 °C.

Regarding `CC(C)Cc1nc2c(N)nc3c(c2n1CC(C)C)CCCC3`, the melting point fell in the range of 160 to 161 °C. Next, `O=C1C(=O)c2ccc(Br)cc2C2=C1SCC1(CCN(C(=O)c3cccc(Cl)c3)CC1)O2`: 135 to 140 °C. Next, `C[Si](C)(C)C1(COC(=O)Nc2ccccc2)c2ccccc2-c2ccccc21`: 94 to 96 °C; `O=C(O)c1nn(-c2ccc(Cl)cc2Cl)c(-c2ccc(Cl)cc2)c1Br`: 222 to 224 °C; `CCCCOc1ccc(S(=O)(=O)C2(C(=O)O)CCN(CCCOc3ccccc3)CC2)cc1`: 84 °C.

`CCCCOC(=O)C(=O)Nc1cc(C#N)cc(NC(=O)C(=O)OCCCC)c1Cl` had a melting point of 118 to 120 °C. Next, `CN1CCN(C(=O)c2ccc(-c3cc(-c4c[nH]nc4-c4ccccn4)ccn3)cc2)CC1`: 142 °C. Compound `C=CC[C@H](C(=O)NC)c1ccc(Cl)c(Cl)c1` came in with a melting point of 104 to 105 °C. For `CCOc1nn(Cc2ccc(OCc3ccc(-c4ccccc4)nc3)cc2)cc1CCC(=O)O`, the melting point lay within 140 to 141 °C. `Cc1cc(C(C)(C)C)c(O)cc1[N+](=O)[O-]`: the melting point lay within 96 to 98 °C. The figure for `CC/C(=C(\c1ccc(/C=C/C(=O)O)cc1)c1ccc(OC(=O)c2cccs2)cc1)c1ccccc1` is 175 to 176 °C; for `O=C(CN1CCOCC1)Nc1cccc2nc(N[C@@H]3CCc4ccccc43)ccc12` it is 179 °C. Next, `COc1ccc2cc(C(=O)O)n(CCNC(C)=O)c2c1`: 210 to 211 °C. Next, `CN(C)C(=O)C1=NO[C@@H](c2ccccc2)C1`: 59 to 61 °C; `COc1cc(CC(N)=O)cc(OC(F)F)c1OC`: 104 to 105 °C.

As to `O=[N+]([O-])c1ccc2oc(-c3ccc(Cl)cc3)nc2c1`, the melting point was 217 to 218 °C. `CCOC(=O)c1c(CCBr)nc2cc(OC)c(OC)cc2c1-c1ccc(OC)c(OC)c1` registered a melting point of 132 to 133 °C. In the case of `O=[N+]([O-])c1cccc(C=[N+]([O-])c2cccc(CO)c2)c1`, the melting point was in the range of 177 to 179 °C. Next, `CCC1Nc2cc(C)cc(C)c2N1c1ccc(CCNC(=O)NS(=O)(=O)c2ccc(C)cc2)cc1` (stereo unspecified): 108 to 112 °C; `Cc1c(C(=O)O)ccc(S(C)(=O)=O)c1-c1ccc(S(C)(=O)=O)cc1`: 214 to 215 °C. The figure for `N#CC(C=O)c1cccc(C(F)(F)F)c1` (stereo unspecified) is 103 to 106 °C; for `CC(=NO)C(C)(C)NCCN(C)NC(C)(C)C(C)=NO` it is 130 to 131 °C. The figure for `Cn1c(C(F)(F)F)nn(Cc2c(Cl)ccc(C(=O)O)c2Cl)c1=O` is 207 °C. In the case of `OCc1nc(-c2cccs2)cs1`, the melting point is 113 to 114 °C. Next, `CC1(C)CC(=O)C2C3CCCCC3C2(C)C1` (stereo unspecified): 76.6 to 77.4 °C; `COC(=O)c1ccc(C=O)cc1SCc1ccccc1`: 91 to 93 °C. The figure for `O=c1c2ccc(F)cc2nc(C(S)c2ncnc3[nH]cnc23)n1-c1ccccc1Cl` (stereo unspecified) is 151 to 154 °C. In turn, `CC(C)(C)OC(=O)NC(Cc1ccccc1)C(O)CNCC(O)C(Cc1ccccc1)NC(=O)SC(C)(C)C` (stereo unspecified) displayed a melting point of 140 to 141 °C.

Turning to `CCOC(=O)C#CC(OC(N)=O)c1ccccc1` (stereo unspecified), the melting point is 82 °C. `CSCc1sccc1S(=O)(=O)N(C)c1cccc2cc(-c3nccs3)[nH]c12` had a melting point of 213 °C. The figure for `CC1(C)C2CC[C@]1(C)C(=O)C(C(=O)Nc1ccc(Cl)c(Cl)c1)C2=O` (stereo partly specified) is 88 to 90 °C.

For `O=c1[nH]c(C2(F)CC2)nc2c1cnn2-c1ncc(C(F)(F)F)cc1Cl`, the melting point turned out to be 211 °C. The figure for `O=C(O)C(=O)CC(=O)c1cccn1Cc1cc(F)cc(F)c1` is 166 to 168 °C; for `Cc1cc(C2=NOC(c3cc(C(F)(F)F)cc(C(F)(F)F)c3)(C(F)(F)F)C2)ccc1Br` (stereo unspecified) it is 108 to 110 °C; for `Cn1c(-c2cccs2)cnc1[C@H](Cc1ccccn1)N(C=O)c1cc2cc(Cl)ccc2o1` it is 70 to 74 °C.

Consider `Cc1nc(N)sc1S(=O)(=O)N(CCO)CCO`, for which the melting point came to 141 °C. The figure for `Cc1cc2c3c(ccn3-c3ccccc3C(N3CCN(C)CC3)=N2)c1` is 167 to 168 °C; for `OC1(c2ccc3c(c2)OCO3)CCNCC1` it is 135 to 138 °C; for `O=C1c2ccccc2-c2nc3ccc(O)cc3c(Cl)c21` it is 253 °C. Next, `COC(=O)c1cc2c3cc(OC)ccc3n(C)c2s1`: 124 to 125 °C; `CCCc1c(OCCCO)ccc(C(C)=O)c1O`: 57 to 59 °C. As to `O=C(Nc1nccs1)c1cn(CC2CC2)c2cc(Cl)ccc12`, the melting point lay within 185 to 187 °C. The figure for `N#CCOc1ccc2cc(-c3csc(-c4ccccc4)n3)ccc2c1Br` is 157 to 160 °C; for `CCCC(CCC)n1nnc2c(Nc3c(Cl)cc(OC)cc3OC)nc(C)cc21` it is 157 to 158 °C; for `CC(C)(C)OC1OC(=O)CC(C)(C)C1OS(C)(=O)=O` (stereo unspecified) it is 64 °C.

Turning to `Cc1ccccc1C(Oc1cc(OCc2ccc3c(c2)OCO3)ccc1C#N)C(=O)O` (racemic), the melting point lay within 52 to 56 °C.

`O=C1CCC2=C(CCc3cccc(Br)c32)N1` had a melting point of 189 to 190 °C. Consider `Cc1cccc(C(=O)COc2c(C(=O)c3ccc(Cl)c(C)c3Cl)c(C)nn2C)c1`, for which the melting point came to 153 °C.

For `CCOC(=O)COc1ccc(Nc2nccc(-c3ccncc3)n2)cc1`, the melting point was in the range of 109 to 111 °C. The figure for `CCOC(=O)C(=O)c1cc(Cl)cc2cccnc12` is 107 to 110 °C; for `COC(=O)c1sc2c(c1N)c1ccccc1c(=O)n2-c1ccccc1C` it is 236 to 237 °C; for `O=C(O)c1nc2cc(O)c(O)cc2nc1C(=O)O` it is above 300 °C. Next, `CC(C)=CC#Cc1cc(C)cc(Oc2cc(C(F)(F)F)nn2C)n1`: 85 °C. Next, `O=C(O)C1=Cc2cc(-c3ccc(OC(F)(F)F)cc3)ccc2S(=O)(=O)CC1`: 284 to 285 °C; `COc1ccc2c(=O)c(-c3ccccc3)coc2c1`: 156 to 158 °C.

`Cc1nc2c(N)c(C(=O)C3OC3c3ccsc3)ccn2c1C` (stereo unspecified) showed a melting point of 186 to 189 °C. Next, `c1cc2cc(-n3cnnc3)ncc2[nH]1`: 254 to 257 °C; `COC(=O)C1=C(C)Nc2nccn2C1c1cccc([N+](=O)[O-])c1` (stereo unspecified): 263 to 264 °C; `CC(c1ccccc1)N1CC2Cc3cc4ccccc4n3CC2C1` (stereo unspecified): 153 °C. Next, `CC(C)n1nc(-c2sc(C(=O)NCc3ccccn3)nc2-c2ccc(F)cc2)ccc1=O`: 204 to 205 °C; `CSc1ccc(Nc2nc(=O)cc(N)n2-c2ccc(C)cc2)cc1`: 231 to 234 °C. Consider `Cc1c(-c2ccccc2)oc2c(C(O)CCCO)cccc2c1=O` (stereo unspecified), for which the melting point lay within 133 to 134 °C. Next, `CC(=O)Cc1cc2[nH]c(=O)oc2cc1Br`: 160 to 162 °C. The figure for `CN(C(=O)c1cccc(S(=O)(=O)N(C)c2ccc(S(C)=O)cc2)c1)c1ccc(Cl)cc1F` (stereo unspecified) is 104 to 106 °C. Next, `Nc1ccccc1C(=O)NCC1CCN(C(c2ccccc2)c2ccccc2)CC1`: 153 to 154 °C; `COC(=O)CCCCc1ccc(NC(=O)N(CCO)C2CCN(Cc3ccccc3)CC2)cc1`: 118 to 120 °C. `COc1ccc(CNc2nc(OCc3ccccn3)ncc2C(=O)O)cc1Cl` gave a melting point of 201 to 203 °C. In the case of `CCOC(=O)c1c(CCl)nc2cc(OC)c(OC)cc2c1-c1ccc(Cl)cc1`, the melting point lay within 153 to 154 °C. On to `CCOC(=O)c1ccc(NC(=O)COC)cc1NC(=O)COC`, for which the melting point was 90 to 91 °C. With `COC(=O)N(Cc1ccccc1)[C@H]1CC[C@H](c2ccc(O)cc2)CC1`, the melting point was in the range of 61 to 66 °C.

Turning to `O=C(SCC(Cc1ccc(Cl)cc1)C(=O)O)c1ccccc1` (stereo unspecified), the melting point lay within 111 to 114 °C.
